Results reported in publication PMC12293604, “Anticancer Effect of Nature-Inspired Indolizine-Based Pentathiepines in 2D and 3D Cellular Model” (Cancers, 2025).

Legend:
[1] = tested on: MCF7, MDA-MB-231, A549, and HCT116 cells; assay: MTT cell viability assay, summary across the cell line panel; type: cell-based, human; conditions: 48 h treatment, across tested cell lines
Description: The fibroblast cell line CR9, kindly provided by Dr. Guven, was maintained in ISCOVE medium. […] All media were supplemented with 10% fetal bovine serum (FBS), 1% L-glutamine, and 0.5% antibiotic mixture (penicillin, streptomycin, and neomycin). Cell cultures were maintained at 37 °C in a humidified atmosphere with 5% CO2, following standard culture protocols. Additionally, for HCT116 cells, the culture medium was further supplemented with 1% sodium pyruvate and 1% non-essential amino acids.
To evaluate the impact of the tested PTEs on cell viability, a colorimetric MTT assay was performed as previously described. Briefly, cells were seeded in 96-well microplates at initial densities of 5 × 10^3 cells per well for the MCF7, MDA-MB231, and A549 cell lines, and 4 × 10^3 cells per well for HCT116 cells. After an initial 24 h incubation period to allow for cell attachment and growth, the cultures were treated with different concentrations of PTEs (0.25–20 µM). […] The resulting formazan crystals were solubilized, and cell viability was measured by recording the absorbance at 570 nm using an iMark Microplate Reader (BIORAD, Segrate, Milan, Italy). The cytotoxic effectiveness of the compounds was expressed as IC50 values, which were calculated from dose–response curves fitted with non-linear regression analysis using Calcusyn version 1.1.4. software (Biosoft, Cambridge, UK).

A549 [2] = assay: MTT cell viability assay, A549; type: cell-based; conditions: Homo sapiens, A549, 48h treatment, mean ± S.D.
Description: (§1) The human cancer cell lines MCF7 (HTB-22, breast adenocarcinoma), MDA-MB-231 (HTB-26, breast adenocarcinoma), HCT116 (CCL-247, colorectal carcinoma), and A549 (CRM-CCL-185, lung carcinoma) were obtained from the American Type Culture Collection (ATCC, Manassas, VA, USA). The fibroblast cell line CR9, kindly provided by Dr. Guven, was maintained in ISCOVE medium. HCT116 cells were cultured in Dulbecco’s Modified Eagle Medium (DMEM), whereas A549, MCF7, and MDA-MB-231 cells were maintained in Roswell Park Memorial Institute 1640 (RPMI-1640) medium. All media were supplemented with 10% fetal bovine serum (FBS), 1% L-glutamine, and 0.5% antibiotic mixture (penicillin, streptomycin, and neomycin). Cell cultures were maintained at 37 °C in a humidified atmosphere with 5% CO2, following standard culture protocols. Additionally, for HCT116 cells, the culture medium was further supplemented with 1% sodium pyruvate and 1% non-essential amino acids.
(§2) To evaluate the impact of the tested PTEs on cell viability, a colorimetric MTT assay was performed as previously described. Briefly, cells were seeded in 96-well microplates at initial densities of 5 × 10^3 cells per well for the MCF7, MDA-MB231, and A549 cell lines, and 4 × 10^3 cells per well for HCT116 cells. After an initial 24 h incubation period to allow for cell attachment and growth, the cultures were treated with different concentrations of PTEs (0.25–20 µM). Following 48 h of treatment, 50 μL of MTT solution (2 mg/mL in PBS) was added to each well, and the plates were incubated at 37 °C for 3 h to allow for MTT reduction by metabolically active cells. The resulting formazan crystals were solubilized, and cell viability was measured by recording the absorbance at 570 nm using an iMark Microplate Reader (BIORAD, Segrate, Milan, Italy). The cytotoxic effectiveness of the compounds was expressed as IC50 values, which were calculated from dose–response curves fitted with non-linear regression analysis using Calcusyn version 1.1.4. software (Biosoft, Cambridge, UK).

[3] = tested on: CR9 human fibroblast cells; assay: MTT cell viability assay, CR9 fibroblasts; type: cell-based; conditions: 48h treatment, mean ± S.D.
Description: as §1, §2

HCT116 [4] = assay: MTT cell viability assay, HCT116; type: cell-based; conditions: Homo sapiens, HCT-116, HCT116, 48h treatment, mean ± S.D.
Description: as §1, §2

MDA-MB231 [5] = assay: MTT cell viability assay, MDA-MB231; type: cell-based; conditions: Homo sapiens, MDA-MB-231, MDA-MB231, 48h treatment, mean ± S.D.
Description: as §1, §2

MCF7 [6] = assay: MTT cell viability assay, MCF7; type: cell-based; conditions: Homo sapiens, MCF7, 48h treatment, mean ± S.D.
Description: as §1, §2

HCT116 [7] = assay: Necrotic cell death, flow cytometry (PI without fixation), HCT116; type: cell-based, human; conditions: HCT116, 48 h treatment at IC50 concentration
Description: (§3) The potential of the tested PTE derivatives to induce apoptotic and/or necrotic cell death, as well as to cause alterations in cell cycle distribution, was evaluated following a 48 h exposure to their respective IC50 concentrations, using flow cytometric analysis as previously described. Briefly, the indicated cell lines were seeded in 12-well plates (3 × 10^5 cells/well) and treated 24 h post-seeding. At the end of the treatment period, following harvesting, cells were washed with PBS and fixed in ice-cold 70% ethanol at −20 °C for a minimum duration of 45 min, to assess apoptotic cell death and perform cell cycle analysis. After fixation, cells were washed again with PBS and stained with a propidium iodide (PI)/RNase solution (50 µg/mL PI and 30 U/mL RNase) in PBS for 15 min at room temperature.
(§4) Flow cytometric analysis was performed using a FACScalibur flow cytometer (Becton Dickinson, Milan, Italy), equipped with a 15 mW, 488 nm air-cooled argon ion laser. Data were acquired and analyzed with CellQuestPRO version 5.1 software. PI fluorescence was detected using a 575 nm band-pass filter. The percentage of apoptotic cells was determined by identifying sub-G1 peaks in monoparametric histograms obtained in logarithmic mode. For cell cycle distribution, PI fluorescence was also analyzed with monoparametric histograms, but data were collected in linear mode.
Necrotic cell death was assessed by omitting the ethanol fixation step from the staining protocol, thereby enabling propidium iodide (PI) to penetrate membrane-compromised cells, indicative of necrosis.

MDA-MB231 [8] = assay: Cell cycle distribution, flow cytometry, MDA-MB231; type: cell-based, human; conditions: MDA-MB231, 48 h at equitoxic (IC50) concentrations
Description: as §3, §4

[9] = tested on: MCF7, MDA-MB231, A549 and HCT116 cell lines; assay: Hydrosulfide production (DNS-N3 probe), summary across cell lines; type: cell-based, human; conditions: 48 h at IC50 concentration, all cell lines
Description: (§5) PTEs-induced sulfide production was evaluated using dansyl azide (DNS-N3) as a probe. DNS-N3 is non-fluorescent itself, while in the presence of hydrosulfide, the azide transforms into the dansyl amide and fluorescence is switched on. After 48 h of treatment, cells were harvested, washed with PBS, and incubated in a PBS solution containing 200 μM DNS-N3. Following 30 min incubation at 37 °C, fluorescence increase was measured through a 575 nm band-pass filter. The levels of hydrosulfide production were assessed and reported in arbitrary units, calculated from the median fluorescence intensity (MFI) measurements. For all flow cytometric analyses, untreated cells (i.e., not exposed to PTE compounds) were used as negative controls.

MDA-MB231 [10] = assay: Intracellular ROS levels (DCFH-DA), MDA-MB231; type: cell-based, human; conditions: MDA-MB231, 48 h at IC50 concentration, vs. CTR
Description: (§6) Intracellular ROS levels were quantified using 2′,7′-dichlorodihydrofluorescein diacetate (DCFH-DA) as a fluorescent probe. After 48 h of treatment, cells were collected, rinsed with PBS, and incubated in a PBS solution containing 10 µM DCFH-DA. Following incubation, fluorescence corresponding to oxidized fluorescein was measured using a 530 nm band-pass filter. ROS production was expressed in arbitrary units based on the median fluorescence intensity (MFI).

[11] = tested on: MCF7, MDA-MB231, A549 and HCT116 cells; assay: Intracellular ROS levels (DCFH-DA), summary across cell lines; type: cell-based, human; conditions: 48 h at IC50 concentration, four cell lines
Description: as §6

[12] = tested on: MCF7, MDA-MB231, A549 and HCT116 cells; assay: Apoptotic cell death, flow cytometry (sub-G1, PI); type: cell-based, human; conditions: 48 h treatment at IC50 concentration, vs. untreated controls
Description: as §3, §4

HCT116 [13] = assay: Cell cycle distribution, flow cytometry, HCT116; type: cell-based, human; conditions: HCT116, 48 h at equitoxic (IC50) concentrations
Description: as §3, §4

HCT116 [14] = assay: Hydrosulfide production (DNS-N3 probe), HCT116; type: cell-based, human; conditions: HCT116, 48 h at IC50 concentration
Description: as §5

MCF7 [15] = assay: Intracellular ROS levels (DCFH-DA), MCF7; type: cell-based, human; conditions: MCF7, 48 h at IC50 concentration, vs. CTR
Description: as §6

HCT116 [16] = assay: Intracellular ROS levels (DCFH-DA), HCT116; type: cell-based, human; conditions: HCT116, 48 h at IC50 concentration, vs. CTR
Description: as §6

MCF7 [17] = assay: Cell cycle distribution, flow cytometry, MCF7; type: cell-based, human; conditions: MCF7, 48 h at equitoxic (IC50) concentrations
Description: as §3, §4

A549 [18] = assay: Cell cycle distribution, flow cytometry, A549; type: cell-based, human; conditions: A549, 48 h at equitoxic (IC50) concentrations
Description: as §3, §4

SMILES	cytotoxic potency (in words) [1]	IC50 (A549 [2]) [µM]	IC50 [3] [µM]	IC50 (HCT116 [4]) [µM]	IC50 (MDA-MB231 [5]) [µM]	IC50 (MCF7 [6]) [µM]	necrosis relative to apoptosis (HCT116 [7])	cell cycle shift: decrease in the G0/G1 phase population with G2/M phase accumulation (MDA-MB231 [8])	sulfide production (in words) [9]	increase in ROS production (MDA-MB231 [10])	ROS production (ranking in words) [11]	apoptotic cell death [12]	cell cycle shift: decrease in the G0/G1 phase population with G2/M phase accumulation (HCT116 [13])	cytotoxic potency (in words) ([1]; listed as 2^PG)	cytotoxic potency (in words) ([1]; listed as 2^Ph)	sulfide increase (HCT116 [14])	increase in ROS production (MCF7 [15])	increase in ROS production (HCT116 [16])	cell cycle shift: decrease in the G0/G1 phase population with G2/M phase accumulation (MCF7 [17])	cell cycle shift: decrease in the G0/G1 phase population with G2/M phase accumulation (A549 [18])
OCCOc1c2c(c3ccccn13)SSSSS2 [2^Gly]	highest cytotoxic potency	0.79 ± 0.06	1.61 ± 0.13	0.603 ± 0.04	0.3 ± 0.03	1.13 ± 0.02	higher levels of necrosis relative to apoptosis	triggered similar effects	most potent inducers of sulfide production	statistically significant	better ROS producers	most potent inducers of apoptosis	triggered similar effects							
Cc1c2c(c3ccccn13)SSSSS2 [2^Me]	noteworthy efficacy	2.54 ± 0.27	7.91 ± 0.32	2.27 ± 0.34	1.45 ± 0.04	4.77 ± 0.14	higher levels of necrosis relative to apoptosis	triggered similar effects	most potent inducers of sulfide production	statistically significant	better ROS producers	most potent inducers of apoptosis	triggered similar effects	highest cytotoxic potency	lowest cytotoxic activity	did not induce sulfide increase	statistically significant			
CCOc1c2c(c3ccc(C=O)cn13)SSSSS2 [3^CHO, 6-ethoxy-9-formyl-[1,2,3,4,5]pentathiepino [6,7-a]indolizine]	highest cytotoxic potency	1.03 ± 0.04	1.9 ± 0.12	0.74 ± 0.06	0.39 ± 0.04	1.7 ± 0.03	higher levels of necrosis relative to apoptosis	exerted this effect exclusively in MDA-MB231 cells	most potent inducers of sulfide production	statistically significant	better ROS producers	most potent inducers of apoptosis					statistically significant			
CCOc1c2c(c3ccc([N+](=O)[O-])cn13)SSSSS2 [3^NO2]	noteworthy efficacy	3.22 ± 0.39	2.87 ± 0.14	1.59 ± 0.15	0.63 ± 0.75	3.21 ± 0.13				statistically significant		most potent inducers of apoptosis					statistically significant			
CCOc1c2c(c3ccccn13)SSSSS2 [compound 1]	noteworthy efficacy	1.54 ± 0.08	7.32 ± 0.15	0.83 ± 0.04	0.63 ± 0.04	2.68 ± 0.31		induced this characteristic cell cycle shift	most potent inducers of sulfide production	statistically significant	better ROS producers	most potent inducers of apoptosis	induced this characteristic cell cycle shift				statistically significant	statistically significant	induced this characteristic cell cycle shift	induced this characteristic cell cycle shift
COc1cccc2c1C(=O)c1c(O)c3c(c(O)c1C2=O)C[C@@](O)(C(=O)CO)C[C@@H]3O[C@H]1C[C@H](N)[C@H](O)[C@H](C)O1 [doxo, doxorubicin, reference compound]		1.5 ± 0.21		3.5 ± 0.6	17.8 ± 1.96	4.5 ± 0.51														
